Reference: publication PMC8214221, “Sequence determinants in the cathelicidin LL-37 that promote inflammation via presentation of RNA to scavenger receptors” (The Journal of Biological Chemistry, 2021)
Residues, ends and D or L forms follow the SMILES beside them.

Assays:
[1] = test system: C57BL/6 mouse ear skin inflammation; assay: Intradermal ear injection with U1 dsRNA in mice; format: in vivo; conditions: 24 h; for Gene expression of IL-6 and CXCL10 in mouse ears: C57BL/6 female mice, intradermal ear coinjection of 25 μg U1 dsRNA and 16 μM peptide, qRT-PCR, mutants compared with U1 dsRNA + LL-34 parent; for Mast cells in mouse ear skin (flow cytometry) / Macrophage and neutrophil recruitment in mouse ear skin (flow cytometry): C57BL/6 mice, intradermal coinjection of 25 μg U1 dsRNA and 16 μM peptide, n = 3; for Mast cells in mouse ear skin (flow cytometry): frequency of gated live cells; for Macrophage and neutrophil recruitment in mouse ear skin (flow cytometry): mutants compared with LL-34 parent + U1 dsRNA
Experimental: C57BL/6 female mice at 8 weeks old were injected in the ears intradermally with a single injection of 25 μg of U1 dsRNA and/or LL-34 parent, Pep I24A, or Pep L31A. We investigated gene expression of IL-6, CXCL10, and TSLP in these mice (Fig. 2, B–D). […] This was in agreement with the in vitro results (Fig. 1). We also looked at the infiltration of immune cells to the mouse ear skin with flow cytometry.
Figure 2 LL-34-I24A and LL-34-L31A peptides loose vetting activity in vivo. C57BL/6 mice ears were injected intradermally with either 25 μg of U1 dsRNA, 16 μM LL-34-parent, LL-34-I24A, and LL-34-L31A as shown in the figure for 24 h (n = 6). A, H&E staining of cross sections of mice injected with U1 dsRNA or LL-34 peptides is shown. The bar represents […]. B–D, gene expression changes for IL-6, CXCL10, and TSLP were assessed with qRT-PCR. GAPDH was used as a reference gene. E–G, flow cytometry analysis was performed to assess the infiltration of immune cells in mouse ears injected with U1 dsRNA alone or a combination of U1 dsRNA and LL-34 peptides. Data are represented as the frequency of gated live cells for mast cells, macrophages, and neutrophils. (n = 3) (∗p < 0.05; ∗∗p < 0.01; ∗∗∗p < 0.001; ∗∗∗∗p < 0.0001). One way-ANOVA was used. LL-34, 34-amino acid peptide; ns, not significant.
All mouse procedures were approved by the University of California, San Diego (UCSD) Institutional Animal Care and Use Program (protocol number: S09074). Eight-week-old female C57BL/6 wildtype mice were used for experiments. C57BL/6 mice ears were injected intradermally with U1 dsRNA and/or LL-34 peptides as described previously ([7]). Single injections were performed. A total of 30 μl was injected in the middle part of the ear. Twenty-four hours after the injection, mice were euthanized with CO2 asphyxiation and ears excised and immediately collected in cold RPMI complete medium on ice and processed for immunohistochemistry, gene expression analysis, and flow cytometry within 1 h.
Mouse ears were collected following euthanasia in cold complete RPMI media on ice and cut into small pieces within 60 min, then digested with 2.5 mg/ml collagenase D, and 30 ng/ml DNase1 for 2 h at 37 °C and then filtered through a 30 μm filter to generate single-cell suspension for fluorescence-activated cell sorting analyses. Cells were then stained with Fixable Viability Dye eFluor 506 (eBioscience; 65-0866-14) blocked with antimouse CD16/32 (eBioscience; 14016185, 1:50 dilution), followed by staining with antibody cocktails for immune cells. The antibody cocktail for immune cells included PECy7-CD11b (BioLegend; 101216, 1:200 dilution), FITC-Ly6G (eBioscience; 11593182, 1:150 dilution), PE-F4/80 (eBioscience; 12480182, 1:200 dilution), APC-CD11C (BioLegend; 117310, 1:100 dilution), AF700-MHCII (eBioscience; 56532182, 1:100 dilution), and c-Kit (Biolegend; 10581, 1:100 dilution). Fluorescence-activated cell sorting analyses for surface expression of immune cell markers were performed by the Biorad ZE5 machine and analyzed by FlowJo V10 software (BD Biosciences). Dead cells were gated out from the analyses.

[2] = test system: NHEKs, IL-6 secretion in response to U1 dsRNA; assay: IL-6 secretion ELISA in NHEKs; format: cell-based, human; conditions: U1 dsRNA 2.5 μg/ml + peptide 2 μM, 18 h, n = 3
Outline: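 NHEKs (also HDMECs) exposed to LL-34 parent or alanine-scan peptides at 2 μM, alone or with U1 dsRNA (2.5 μg/ml), for 18 h. Secreted IL-6 in supernatant quantified by sandwich ELISA (n = 3).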

Row | Compound | Gene expression of IL-6 and CXCL10 in mouse ears [1] | Mast cells in mouse ear skin (flow cytometry) [1] | Macrophage and neutrophil recruitment in mouse ear skin (flow cytometry) [1] | IL-6 protein secretion, cotreatment with U1 dsRNA, vs U1 dsRNA + LL-34 parent [2]
1 | CC[C@H](C)[C@H](NC(=O)[C@H](CCCCN)NC(=O)[C@H](CCC(=O)O)NC(=O)[C@H](CCCCN)NC(=O)[C@H](CO)NC(=O)[C@H](CCCCN)NC(=O)[C@H](CCCNC(=N)N)NC(=O)[C@H](Cc1ccccc1)NC(=O)[C@H](Cc1ccccc1)NC(=O)[C@H](CC(=O)O)NC(=O)CNC(=O)[C@H](CC(C)C)NC(=O)[C@@H](N)CC(C)C)C(=O)NCC(=O)N[C@@H](CCCCN)C(=O)N[C@@H](CCC(=O)O)C(=O)N[C@@H](Cc1ccccc1)C(=O)N[C@@H](CCCCN)C(=O)N[C@@H](CCCNC(=N)N)C(=O)N[C@H](C(=O)N[C@H](C(=O)N[C@@H](CCC(N)=O)C(=O)N[C@@H](CCCNC(=N)N)C(=O)N[C@@H](C)C(=O)N[C@@H](CCCCN)C(=O)N[C@@H](CC(=O)O)C(=O)N[C@@H](Cc1ccccc1)C(=O)N[C@@H](CC(C)C)C(=O)N[C@@H](CCCNC(=N)N)C(=O)N[C@@H](CC(N)=O)C(=O)N[C@@H](CC(C)C)C(=O)N[C@H](C(=O)N1CCC[C@H]1C(=O)N[C@@H](CCCNC(=N)N)C(=O)O)C(C)C)C(C)C)[C@@H](C)CC [LL-34—I24A] (H-LLGDFFRKSKEKIGKEFKRIVQRAKDFLRNLVPR-OH) | significantly reduced | similarly increased mast cells | significant reduction in macrophage and neutrophil recruitment | reduced secretion of IL-6 protein
2 | CC[C@H](C)[C@H](NC(=O)[C@H](CCCCN)NC(=O)[C@H](CCC(=O)O)NC(=O)[C@H](CCCCN)NC(=O)[C@H](CO)NC(=O)[C@H](CCCCN)NC(=O)[C@H](CCCNC(=N)N)NC(=O)[C@H](Cc1ccccc1)NC(=O)[C@H](Cc1ccccc1)NC(=O)[C@H](CC(=O)O)NC(=O)CNC(=O)[C@H](CC(C)C)NC(=O)[C@@H](N)CC(C)C)C(=O)NCC(=O)N[C@@H](CCCCN)C(=O)N[C@@H](CCC(=O)O)C(=O)N[C@@H](Cc1ccccc1)C(=O)N[C@@H](CCCCN)C(=O)N[C@@H](CCCNC(=N)N)C(=O)N[C@H](C(=O)N[C@H](C(=O)N[C@@H](CCC(N)=O)C(=O)N[C@@H](CCCNC(=N)N)C(=O)N[C@H](C(=O)N[C@@H](CCCCN)C(=O)N[C@@H](CC(=O)O)C(=O)N[C@@H](Cc1ccccc1)C(=O)N[C@@H](CC(C)C)C(=O)N[C@@H](CCCNC(=N)N)C(=O)N[C@@H](CC(N)=O)C(=O)N[C@@H](C)C(=O)N[C@H](C(=O)N1CCC[C@H]1C(=O)N[C@@H](CCCNC(=N)N)C(=O)O)C(C)C)[C@@H](C)CC)C(C)C)[C@@H](C)CC [LL-34—L31A] (H-LLGDFFRKSKEKIGKEFKRIVQRIKDFLRNAVPR-OH) | significantly reduced | significant decrease in mast cell number | significant reduction in macrophage and neutrophil recruitment | reduced secretion of IL-6 protein
